Assay results: PubChem BioAssay AID2060892 (Molecular Pharmacology Branch, DTP, NCI, 2025)

System: HOP-62 complex spheroids with HUVEC/MSC, viability
Test: Anticancer human tumor HOP-62 cell line growth inhibition [RAS];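 note: spheroids exposed to agents for seven days before readout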;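 for viability, T/C: 100% = DMSO vehicle control viability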
Conditions: for IC50: curve of first compound; for viability, T/C: stronger effect = lower value
Summary of the method: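 Tumour cells grown as complex spheroids with HUVEC endothelial cells and mesenchymal stem cells, treated with RAS pathway inhibitor combinations. Each agent spans half-log steps from near clinical Cmax, or 10 microM where Cmax is unknown.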

Nc1ccn(C2OC(CO)C(O)C2(F)F)c(=O)n1 (centres undefined) + CCn1c(-c2cccnc2C(C)OC)c2c3cc(ccc31)N1CCOC(CC(NC(=O)C(C(C)C)N(C)C(=O)C3(F)CCN(C(=O)C#CC(C)(C)N(C)C)CC3)C(=O)N3CCCC(N3)C(=O)OCC(C)(C)C2)C1
IC50 (second compound 0.000949 µM): 14 nM | IC50 (second compound 0.003 µM): 9.19 nM | IC50 (second compound 0.00949 µM): 8.18 nM | IC50 (second compound 0.03 µM): 10.6 nM | IC50 (second compound 0.0949 µM): 9.58 nM | IC50 (second compound 0.3 µM): 8.77 nM | viability, T/C (second compound 0.000949 µM, first compound 0.00316 µM): 111% | viability, T/C (second compound 0.000949 µM, first compound 0.01 µM): 66.9% | viability, T/C (second compound 0.000949 µM, first compound 0.0316 µM): 9.65% | viability, T/C (second compound 0.000949 µM, first compound 0.1 µM): 7.4% | viability, T/C (second compound 0.000949 µM, first compound 0.316 µM): 7.76% | viability, T/C (second compound 0.000949 µM, first compound 1 µM): 5.24% | viability, T/C (second compound 0.003 µM, first compound 0.00316 µM): 104% | viability, T/C (second compound 0.003 µM, first compound 0.01 µM): 45.6% | viability, T/C (second compound 0.003 µM, first compound 0.0316 µM): 18.4% | viability, T/C (second compound 0.003 µM, first compound 0.1 µM): 7.14% | viability, T/C (second compound 0.003 µM, first compound 0.316 µM): 8.39% | viability, T/C (second compound 0.003 µM, first compound 1 µM): 5.94% | viability, T/C (second compound 0.00949 µM, first compound 0.00316 µM): 87.8% | viability, T/C (second compound 0.00949 µM, first compound 0.01 µM): 41% | viability, T/C (second compound 0.00949 µM, first compound 0.0316 µM): 22.8% | viability, T/C (second compound 0.00949 µM, first compound 0.1 µM): 10.3% | viability, T/C (second compound 0.00949 µM, first compound 0.316 µM): 10.9% | viability, T/C (second compound 0.00949 µM, first compound 1 µM): 5.88% | viability, T/C (second compound 0.03 µM, first compound 0.00316 µM): 90% | viability, T/C (second compound 0.03 µM, first compound 0.01 µM): 51.2% | viability, T/C (second compound 0.03 µM, first compound 0.0316 µM): 22.7% | viability, T/C (second compound 0.03 µM, first compound 0.1 µM): 8.44% | viability, T/C (second compound 0.03 µM, first compound 0.316 µM): 4.99% | viability, T/C (second compound 0.03 µM, first compound 1 µM): 7.65% | viability, T/C (second compound 0.0949 µM, first compound 0.00316 µM): 83.9% | viability, T/C (second compound 0.0949 µM, first compound 0.01 µM): 48.5% | viability, T/C (second compound 0.0949 µM, first compound 0.0316 µM): 21.7% | viability, T/C (second compound 0.0949 µM, first compound 0.1 µM): 8.95% | viability, T/C (second compound 0.0949 µM, first compound 0.316 µM): 5.53% | viability, T/C (second compound 0.0949 µM, first compound 1 µM): 6.69% | viability, T/C (second compound 0.3 µM, first compound 0.00316 µM): 77.8% | viability, T/C (second compound 0.3 µM, first compound 0.01 µM): 45.9% | viability, T/C (second compound 0.3 µM, first compound 0.0316 µM): 22.9% | viability, T/C (second compound 0.3 µM, first compound 0.1 µM): 8.24% | viability, T/C (second compound 0.3 µM, first compound 0.316 µM): 8.97% | viability, T/C (second compound 0.3 µM, first compound 1 µM): 8.38%

Nc1ccn(C2OC(CO)C(O)C2(F)F)c(=O)n1 (centres undefined) + C=CC(=O)N1CCN(c2nc(OCC3CCCN3C)nc3c(F)c(-c4nc(N)cc(C)c4C(F)(F)F)c(Cl)cc23)C(C)C1
IC50 (second compound 0.00316 µM): 4.79 nM | IC50 (second compound 0.01 µM): 4 nM | IC50 (second compound 0.0316 µM): 3.8 nM | IC50 (second compound 0.1 µM): 3.57 nM | IC50 (second compound 0.316 µM): 3.88 nM | IC50 (second compound 1 µM): 3.32 nM | viability, T/C (second compound 0.00316 µM, first compound 0.00316 µM): 71.5% | viability, T/C (second compound 0.00316 µM, first compound 0.01 µM): 11.7% | viability, T/C (second compound 0.00316 µM, first compound 0.0316 µM): 4.51% | viability, T/C (second compound 0.00316 µM, first compound 0.1 µM): 3.58% | viability, T/C (second compound 0.00316 µM, first compound 0.316 µM): 3.88% | viability, T/C (second compound 0.00316 µM, first compound 1 µM): 4.22% | viability, T/C (second compound 0.01 µM, first compound 0.00316 µM): 61% | viability, T/C (second compound 0.01 µM, first compound 0.01 µM): 7.13% | viability, T/C (second compound 0.01 µM, first compound 0.0316 µM): 4.46% | viability, T/C (second compound 0.01 µM, first compound 0.1 µM): 3.64% | viability, T/C (second compound 0.01 µM, first compound 0.316 µM): 3.98% | viability, T/C (second compound 0.01 µM, first compound 1 µM): 4.49% | viability, T/C (second compound 0.0316 µM, first compound 0.00316 µM): 57.3% | viability, T/C (second compound 0.0316 µM, first compound 0.01 µM): 11.7% | viability, T/C (second compound 0.0316 µM, first compound 0.0316 µM): 4.71% | viability, T/C (second compound 0.0316 µM, first compound 0.1 µM): 4.6% | viability, T/C (second compound 0.0316 µM, first compound 0.316 µM): 4.09% | viability, T/C (second compound 0.0316 µM, first compound 1 µM): 3.59% | viability, T/C (second compound 0.1 µM, first compound 0.00316 µM): 54.7% | viability, T/C (second compound 0.1 µM, first compound 0.01 µM): 10.5% | viability, T/C (second compound 0.1 µM, first compound 0.0316 µM): 3.96% | viability, T/C (second compound 0.1 µM, first compound 0.1 µM): 3.63% | viability, T/C (second compound 0.1 µM, first compound 0.316 µM): 4.57% | viability, T/C (second compound 0.1 µM, first compound 1 µM): 3.1% | viability, T/C (second compound 0.316 µM, first compound 0.00316 µM): 58.8% | viability, T/C (second compound 0.316 µM, first compound 0.01 µM): 9.95% | viability, T/C (second compound 0.316 µM, first compound 0.0316 µM): 5.61% | viability, T/C (second compound 0.316 µM, first compound 0.1 µM): 4.79% | viability, T/C (second compound 0.316 µM, first compound 0.316 µM): 5.44% | viability, T/C (second compound 0.316 µM, first compound 1 µM): 3.53% | viability, T/C (second compound 1 µM, first compound 0.00316 µM): 51.9% | viability, T/C (second compound 1 µM, first compound 0.01 µM): 6.83% | viability, T/C (second compound 1 µM, first compound 0.0316 µM): 4.34% | viability, T/C (second compound 1 µM, first compound 0.1 µM): 3.74% | viability, T/C (second compound 1 µM, first compound 0.316 µM): 4.68% | viability, T/C (second compound 1 µM, first compound 1 µM): 3.28%
